In data set [1] the test system is Mycobacterium tuberculosis. In words: Antimycobacterial activity against replicating Mycobacterium tuberculosis H37Rv incubated for 1 week in presence of piperine by MABA method. Type of data set: functional. The note with it: 168 h.
For data set [2], the system named is Mycobacterium tuberculosis. In words: Antimycobacterial activity against replicating Mycobacterium tuberculosis H37Rv incubated for 1 week in presence of verapamil by MABA method. Type of data set: functional. The note with it: 168 h.
In data set [3] the test system is RAW264.7. In words: Cytotoxicity against mouse RAW264.7 cells assessed as reduction in cell viability at 25 uM after 48 hrs by MTT assay relative to control. Type of data set: cell-based. The note with it: raw264.7, 48 h. (Tetrazolium assays rely on reduction of a dye to a coloured formazan, in cell work by metabolically active cells.)
Data set [4] relates to Mycobacterium tuberculosis. In words: Antimycobacterial activity against replicating Mycobacterium tuberculosis H37Rv incubated for 1 week by MABA method. The note with it: 168 h. Type of data set: functional. (The colour change of resazurin is a common sign of viable cells or microbes.)
The subject of data set [5] is Mycobacterium tuberculosis. The data set can be described thus: Antimycobacterial activity against Mycobacterium tuberculosis H37Rv dormant stage assessed as log reduction in bacterial load at 10 ug/ml incubated for 7 days. The class given is functional.
Data set [6] concerns Mycobacterium marinum. In words: Antimycobacterial activity against Mycobacterium marinum ATCC BAA-535 infected in zebrafish at 10 mg/kg, po treated for 7 days by MPN assay. The class given is functional.
The subject of data set [7] is Mycobacterium tuberculosis. In words: Ratio of MIC for Mycobacterium tuberculosis H37Rv to MIC for Mycobacterium tuberculosis H37Rv in presence of verapamil. The class given is functional.
The target in data set [8] is T1, Glutamate racemase (Mycobacterium tuberculosis (strain ATCC 25618 / H37Rv)) (UniProt P9WPW9).
T1 sequence (whole entry): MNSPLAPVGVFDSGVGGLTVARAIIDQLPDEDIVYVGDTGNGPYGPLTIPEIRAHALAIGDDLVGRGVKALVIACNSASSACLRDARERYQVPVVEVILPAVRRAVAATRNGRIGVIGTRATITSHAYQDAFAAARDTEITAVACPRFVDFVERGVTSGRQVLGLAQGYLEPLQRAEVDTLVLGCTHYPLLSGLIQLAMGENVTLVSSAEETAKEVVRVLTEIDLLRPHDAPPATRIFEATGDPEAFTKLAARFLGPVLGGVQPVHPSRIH
The data set can be described thus: Stabilization of Mycobacterium tuberculosis glutamate racemase bound to D-glutamate assessed as melting temperature by sypro-orange dye-based fluorescence assay (reference value: 45.1 degreeC).

Data set [9] has as its system Mycobacterium tuberculosis. The data set can be described thus: Antibiofilm activity against Mycobacterium tuberculosis H37Rv assessed as log reduction in bacterial load at 10 ug/ml incubated for 1 week by MPN assay. Type of data set: functional.
Data set [10] concerns Mycobacterium tuberculosis. The data set can be described thus: Bactericidal activity against Mycobacterium tuberculosis H37Rv dormant stage up to 21 days by time kill assay. The class given is functional. To be noted: 504 h.
The target in data set [11] is T1, Glutamate racemase (Mycobacterium tuberculosis (strain ATCC 25618 / H37Rv)). In words: Stabilization of Mycobacterium tuberculosis glutamate racemase assessed as melting temperature by sypro-orange dye-based fluorescence assay (reference value: 43.7 degreeC).
In data set [12] the test system is Mycobacterium tuberculosis. In words: Bactericidal activity against Mycobacterium tuberculosis H37Rv dormant stage at 5 to 20 uM by time kill assay. Type of data set: functional, organism-based. The note with it: TDE = time-dependent effect.
Data set [13] concerns Mycobacterium marinum. In words: Antimycobacterial activity against Mycobacterium marinum ATCC BAA-535 infected in zebrafish at 5 mg/kg, po treated for 7 days by MPN assay. Type of data set: functional.
Data set [14] deals with T1, Glutamate racemase (Mycobacterium tuberculosis (strain ATCC 25618 / H37Rv)). The data set can be described thus: Stabilization of Mycobacterium tuberculosis glutamate racemase bound to D-glutamate assessed as change in melting temperature by sypro-orange dye-based fluorescence assay.
For data set [15] the target is unchanged. The data set can be described thus: Stabilization of Mycobacterium tuberculosis glutamate racemase assessed as change in melting temperature by sypro-orange dye-based fluorescence assay.

In brackets after ≈: the same amount, converted by molar mass.

For orientation: MIC means the smallest concentration in the dilution series that meets the test's criterion for growth inhibition. Turning to `Cc1ccc(NC(=S)Nc2cccc(-c3nc4cc(C)ccc4o3)c2)cc1`, the values for the MIC in data set [1], in data set [2] and in [4] were 77 µM, 77 µM and 77 µM (≈ 28.8 µg/mL), respectively. Moreover, the Activity in data set [3] is on record as 2.12%.

On to `Cc1ccc2oc(-c3cccc(NC(=O)Nc4ccc(Cl)cc4)c3)nc2c1`, for which the Activity in data set [3] worked out at 1.09%. The compound also returned an MIC in [4] of 66.3 µM (≈ 25.1 µg/mL).

In the case of `O=C(Nc1ccccc1)Nc1cccc(-c2nc3ccccc3o2)c1`, the Activity in [3] was 48.38%. This compound also displayed an MIC in data set [4] of 75.1 µM (≈ 24.7 µg/mL).

Turning to `Cc1ccc2oc(-c3cccc(NC(=O)Nc4ccc(F)cc4)c3)nc2c1`, the Activity in data set [3] is on record as 3.17%. This compound returned an MIC in [4] of 69.3 µM (≈ 25.1 µg/mL).

Regarding `CC[C@@H](CO)NCCN[C@@H](CC)CO` [ETHAMBUTOL], the MIC in data set [1] amounted to 3.82 µM; in data set [2] it was 3.82 µM; in [4], 7.89 µM (≈ 1.61 µg/mL).

On to `Cc1ccc(NC(=S)Nc2cccc(-c3nc4ccccc4o3)c2)cc1`, for which the Activity in data set [3] was determined as 99.14%. In addition, in [4], inhibition of growth (MIC) required 69.5 µM (≈ 25 µg/mL).

For orientation: MBC means the smallest concentration meeting the test's criterion for killing. Turning to `Cc1ccc2oc(-c3cccc(NC(=S)Nc4ccc(Cl)cc4)c3)nc2c1`, the results for the “log(activity)” value in data set [5], in [6] and in data set [9] were 2.5, 3.4 and 2.4, respectively. In addition, the figures for the MIC in data set [1], in data set [2] and in data set [4] were 2.01 µM, 2.01 µM and 8.72 µM (≈ 3.43 µg/mL), respectively. The Activity was 55.82% in [3] and “Tde” in data set [12]. Moreover, the Ratio in [7] is 4. Moreover, the Tm in data set [8] came to 51.9 °C; in [11] it was 49.8 °C. In data set [10], this compound returned an MBC of 25.4 µM (≈ 10 µg/mL).

Turning to `Cc1ccc(NC(=O)Nc2cccc(-c3nc4ccccc4o3)c2)cc1`, the MIC in [1] is 36.2 µM; in data set [2] it was 36.2 µM; in data set [4], 36.2 µM (≈ 12.4 µg/mL). The Activity in [3] was 1.09%.

For `O=[N+]([O-])c1ccc(NC(=S)Nc2cccc(-c3nc4ccccc4o3)c2)cc1`, the “log(activity)” value turned out to be 2.5 in data set [5] and 0.8 in data set [9]. Further, the Activity in [3] is 88.12%. The MIC in data set [4] amounted to 2.09 µM (≈ 0.816 µg/mL).

Consider `Cc1ccc2oc(-c3cccc(NC(=S)Nc4ccccc4)c3)nc2c1`, for which the MIC in data set [1] was determined as 8.69 µM; in [2], 8.69 µM; in data set [4] it was 69.6 µM (≈ 25 µg/mL). The Activity in data set [3] came out at 87.32%.

As to `CO[C@H]1/C=C/O[C@@]2(C)Oc3c(C)c(O)c4c(O)c(c(/C=N/N5CCN(C)CC5)c(O)c4c3C2=O)NC(=O)/C(C)=C\C=C\[C@H](C)[C@H](O)[C@@H](C)[C@@H](O)[C@@H](C)[C@H](OC(C)=O)[C@@H]1C` [RIFAMPIN], the “log(activity)” value in data set [5] turned out to be 0.8; in data set [9] it was 1.5. Further, the MIC worked out at 0.21 µM in data set [1], 0.21 µM in [2] and 0.21 µM (≈ 0.173 µg/mL) in [4].

With `Cc1ccc2oc(-c3cccc(NC(=S)NCc4ccccc4)c3)nc2c1`, the Activity in data set [3] worked out at 38.91%. In data set [4], this compound yielded an MIC of 2.05 µM (≈ 0.766 µg/mL).

As for `NNC(=O)c1ccncc1` [ISONIAZID], the “log(activity)” value in data set [5] is on record as 1.4; in data set [13], 2.5; in data set [9] it was 1.2. Further, the MIC in data set [1] turned out to be 0.78 µM; in data set [2], 0.78 µM; in [4], 0.78 µM (≈ 0.107 µg/mL).

As to `S=C(Nc1ccccc1)Nc1cccc(-c2nc3ccccc3o2)c1`, in data set [3], the Activity stood at 96.23%. In data set [4], this compound registered an MIC of 19.3 µM (≈ 6.67 µg/mL).

As to `Cc1ccc2oc(-c3cccc(NC(=S)Nc4ccc(F)cc4)c3)nc2c1`, the “log(activity)” value was 2.5 in data set [5] and 0.8 in data set [9]. Further, the Activity in data set [3] is 81.92%. Also, in data set [4], the MIC amounted to 2.16 µM (≈ 0.815 µg/mL).

Consider `S=C(NCc1ccccc1)Nc1cccc(-c2nc3ccccc3o2)c1`, for which the MIC turned out to be 2.21 µM in [1], 2.21 µM in data set [2] and 69.2 µM (≈ 24.9 µg/mL) in [4]. The Activity in data set [3] was 47.21%.

With `Fc1ccc(NC(=S)Nc2cccc(-c3nc4ccccc4o3)c2)cc1`, the figures for the “log(activity)” value in [5] and in data set [9] were 0.2 and 0.4, respectively. Besides, the Activity in data set [3] is 96.02%. Besides, in data set [4], the MIC is 4.37 µM (≈ 1.59 µg/mL). Further, the MBC in data set [10] is 27.5 µM (≈ 9.98 µg/mL).

Take `O=C(Nc1ccc([N+](=O)[O-])cc1)Nc1cccc(-c2nc3ccccc3o2)c1`: the Activity in [3] is given as 95.11%. Also, the MIC in [4] is 67 µM (≈ 25.1 µg/mL).

Take `O=C(Nc1ccc(F)cc1)Nc1cccc(-c2nc3ccccc3o2)c1`: the MIC in [1] amounted to 72.1 µM; in data set [2], 72.1 µM; in data set [4], 72.1 µM (≈ 25.1 µg/mL). For the same compound, in [3], the Activity came to 2.98%.

Take `COc1c(N2C[C@@H]3CCCN[C@@H]3C2)c(F)cc2c(=O)c(C(=O)O)cn(C3CC3)c12` [MOXIFLOXACIN]: the “log(activity)” value in data set [5] was 0.3; in [13], 2.4; in [9], 2.

`O=C(NCc1ccccc1)Nc1cccc(-c2nc3ccccc3o2)c1`: the Activity in data set [3] is given as 2.12%. The compound also had an MIC in [4] of 72.8 µM (≈ 25 µg/mL).

Take `S=C(Nc1ccc(Cl)cc1)Nc1cccc(-c2nc3ccccc3o2)c1`: the Activity in data set [3] is recorded as 22.81%. In data set [4], this compound showed a minimum inhibitory concentration (MIC) of 63.9 µM (≈ 24.3 µg/mL).

In the case of `COc1ccc(NC(=O)Nc2cccc(-c3nc4ccccc4o3)c2)cc1`, the values for the MIC in data set [1], in data set [2] and in data set [4] were 69.3 µM, 69.3 µM and 69.3 µM (≈ 24.9 µg/mL), respectively. Moreover, in data set [3], the Activity stood at 17.26%.

In the case of `COc1ccc(NC(=O)Nc2cccc(-c3nc4cc(C)ccc4o3)c2)cc1`, the Activity in data set [3] was determined as 11.09%. This compound yielded an MIC in [4] of 67.9 µM (≈ 25.4 µg/mL).

As a reminder, the ΔTm is the shift of the melting midpoint relative to a reference. Take `Cc1ccc2oc(-c3cccc(NC(=O)NCc4ccccc4)c3)nc2c1`: the figures for the ΔTm in data set [14] and in [15] were 2 °C and 3.2 °C, respectively.

In the case of `Cc1ccc2oc(-c3cccc(NC(=S)Nc4ccc([N+](=O)[O-])cc4)c3)nc2c1`, the MIC in data set [1] turned out to be 1.91 µM; in [2], 1.91 µM; in [4], 61.9 µM (≈ 25 µg/mL). Besides, the Activity in data set [3] was found to be 98.1%.

In the case of `O=C(Nc1ccc(Cl)cc1)Nc1cccc(-c2nc3ccccc3o2)c1`, the Activity in [3] is 38.91%. For the same compound, in [4], the lowest concentration to inhibit growth (MIC) was 68.3 µM (≈ 24.9 µg/mL).

On to `CC(C)c1ccc(NC(=O)Nc2cccc(-c3nc4ccccc4o3)c2)cc1`, for which the Activity in [3] was 3.52%. Besides, the MIC in [4] worked out at 81.2 µM (≈ 30.2 µg/mL).

On to `Cc1ccc2oc(-c3cccc(NC(=O)Nc4ccccc4)c3)nc2c1`, for which the MIC in data set [1] amounted to 72.9 µM; in [2], 72.9 µM; in [4], 72.9 µM (≈ 25 µg/mL). The Activity in data set [3] amounted to 10.15%.

These data come from ChEMBL document CHEMBL4251635, “Identification and development of benzoxazole derivatives as novel bacterial glutamate racemase inhibitors” (Eur J Med Chem, 2018).
